According to patent publication US10196362B2, “Carbamate compound and use thereof” (SUMITOMO CHEMICAL COMPANY, LIMITED, priority 2015, dated 2019):

How the values were obtained:
[1] = tested on: soybean rust (Phakopsora pachyrhizi); assay: Test Example 7: soybean rust, foliar spray pot test; format: in vivo; settings: soybean (Kurosengoku), 200 ppm foliar spray, Formulation Example 6, inoculated after 4 days
[2] = tested on: wheat speckled leaf blotch fungus (Septoria tritici); assay: Test Example 5: wheat speckled leaf blotch, foliar spray pot test; format: in vivo; settings: wheat (Apogee), 500 ppm foliar spray, Formulation Example 6, inoculated after 4 days

SMILES	area of the lesion on treated plant relative to untreated plant [1]	area of the lesion on treated plant relative to untreated plant [2]
COC(=O)Nc1ccccc1COc1ccc(-n2cccn2)cc1 [methyl N-(2-{[4-(1H-pyrazol-1-yl)phenoxy)methyl}phenyl)carbamate]	≥ 70%	–
COC(=O)N(OC)c1ccccc1COc1ccc(-n2nc(C)cc2C)cc1C [methyl N-(2-{[2-methyl-4-(3,5-dimethyl-1H-pyrazol-1-yl)phenoxy]methyl}phenyl)-N-methoxy carbamate]	–	≥ 70%
